Experimental data published in patent publication US20200338158A1, “Therapeutic Drug for Non-Alcoholic Fatty Liver Disease” (Shanghai Hep Pharmaceutical Co., Ltd., priority 2017, published 2020).
Entries after “also recorded” stand apart in the source; their conditions may differ.

Tests used:
C57BL6 mice [1] = assay: Liver biochemistry test, mouse NASH model; format: in vivo
Source text: (§1) In this example, a mouse nonalcoholic steatohepatitis (NASH) model was used to evaluate the effect of hepalatide (L47) on pathological changes and metabolism level of NASH, and to determine whether L47 can improve the pathological changes of NASH, so as to provide reference for pharmacodynamic evaluation of L47 before clinical treatment.
Hydroxyproline and free fatty acid (FFA) kits (Cat No.: A030-3 and A042-1, respectively) were provided by Nanjing Jiancheng Bioengineering Research Institute;
Triglyceride (TG) and cholesterol (TC) (Cat No.: E1013-105 and E1015 respectively) were provided by Applygen Technologies Inc.
At week 8 and week 16, liver was taken and levels of TG, TC, free fatty acid (FFA), hydroxyproline (HYP) were measured.

C57BL6 mice [2] = assay: Blood (serum) biochemistry test, mouse NASH model; format: in vivo
Source text: as §1
Total cholesterol (TC), triglyceride (TG), total bilirubin (TBIL), high-density lipoprotein cholesterol (HDL-C), low-density lipoprotein cholesterol (LDL-C), alkaline phosphatase (ALP), albumin (ALB), aspartate aminotransferase (AST) and alanine aminotransferase (ALT) were provided by Shanghai Adicon Company and tested by automatic biochemical analyzer.
Total bile acid (TBA), very low density lipoprotein (VLDL): provided by Nanjing Jiancheng Bioengineering Institute.
At week 8 and week 16, blood was taken from fasted mice (fasted for 12 hours) after anesthesia, and levels of serum TG, TC, ALB, ALP, ALT, AST, HDL-C, LDL-C, VLDL, TBIL, TBA, insulin (Ins) were measured.

[3] = week 8, treatment groups (HL1, HH1) vs model group
[4] = week 16, treatment groups vs model group
[5] = week 16, vs model group, HL1 (L47 10 mg/kg*2/d s.c. from start)
[6] = week 8, treatment groups vs model group
[7] = week 8, vs model group, HL1 (L47 10 mg/kg*2/d s.c. from start)
[8] = week 16, treatment groups vs model group (conclusions)
[9] = week 16, vs model group, HH2 (L47 30 mg/kg*2/d s.c., started after 8 weeks), 30 mg/kg
[10] = week 16, vs model group, HL2 (L47 10 mg/kg*2/d s.c., started after 8 weeks), p<0.05
[11] = week 16, vs model group, high dose group 1 (L47 30 mg/kg*2/d s.c. from start), 30 mg/kg

With hepalatide [L47] the “liver FFA level” value (C57BL6 mice [1]; week 8, high dose group vs model group, p<0.05) was “statistical significance”, the “liver FFA level” value (C57BL6 mice [1]; [3]) was “decreasing trends; also recorded: decreased significantly” and the liver hydroxyproline level (C57BL6 mice [1]; [3]) was “decreasing trends; also recorded: reduced”. For the same substance, the “liver TC level” value (C57BL6 mice [1]; week 8, treatment groups (HL1, HH1) vs model group, p<0.001, p≤0.001) was “significantly decreased”, the “liver TG level” value (C57BL6 mice [1]; week 8, treatment groups (HL1, HH1) vs model group, p≤0.001, p<0.001) was “significantly decreased; also recorded: decreased significantly” and the liver hydroxyproline level (C57BL6 mice [1]; week 16, HH1 (L47 30 mg/kg*2/d s.c. from start)) was “higher”. For the same substance, the liver hydroxyproline level (C57BL6 mice [1]; week 16, HL1 (L47 10 mg/kg*2/d s.c. from start)) was “higher”, the “liver TC level” value (C57BL6 mice [1]; week 16, treatment groups (HL1, HH1, HL2, HH2) vs model group, p<0.001 each) was “significantly decreased” and the “liver FFA level” value (C57BL6 mice [1]; [4]) was “decreased; also recorded: decreasing trends”. The “liver TG level” value (C57BL6 mice [1]; week 16, vs model group, HH1 (L47 30 mg/kg*2/d s.c. from start)) was “decreasing trends”, the liver hydroxyproline level (C57BL6 mice [1]; week 16, vs model group, HH2 (L47 30 mg/kg*2/d s.c., started after 8 weeks), more significant, p<0.05) was “decreased” and the “liver TG level” value (C57BL6 mice [1]; week 16, vs model group, HH2 (L47 30 mg/kg*2/d s.c., started after 8 weeks), p<0.05) was “significantly decreased”. The “liver TG level” value (C57BL6 mice [1]; [5]) was “decreasing trends”, the liver hydroxyproline level (C57BL6 mice [1]; week 16, vs model group, HL2 (L47 10 mg/kg*2/d s.c., started after 8 weeks)) was “decreased” and the “liver TG level” value (C57BL6 mice [1]; week 16, vs model group, HL2 (L47 10 mg/kg*2/d s.c., started after 8 weeks), p<0.01) was “significantly decreased”. For the same substance, the “serum LDL-C level” value (C57BL6 mice [2]; at week 20 (so in the source), HH1 (L47 30 mg/kg*2/d s.c. from start), p<0.01) was “decreased”, the “serum LDL-C level” value (C57BL6 mice [2]; at week 20 (so in the source), HL1 (L47 10 mg/kg*2/d s.c. from start), p≤0.001) was “decreased” and the “serum HDL-C level” value (C57BL6 mice [2]; at week 20 (so in the source), treatment groups except HH2, vs model group, p<0.01) was “decreased”. For the same substance, the “serum LDL-C level” value (C57BL6 mice [2]; week 8, HH1 (L47 30 mg/kg*2/d s.c. from start)) was “decreased”, the “serum TC level” value (C57BL6 mice [2]; week 8, HL1 (L47 10 mg/kg*2/d s.c. from start), p<0.05) was “decreased significantly” and the “serum AST level” value (C57BL6 mice [2]; [3]) was “decreasing trend; also recorded: decreased”. For the same substance, the “serum TC level” value (C57BL6 mice [2]; [3]) was “significantly decreased”, the “serum TG level” value (C57BL6 mice [2]; [3]) was “significantly decreased” and the “serum ALT level” value (C57BL6 mice [2]; week 8, treatment groups (HL1, HH1) vs model group, p≤0.001) was “significantly decreased”. The “serum ALB level” value (C57BL6 mice [2]; [6]) was “decreased”, the “serum ALP level” value (C57BL6 mice [2]; [6]) was “no significant difference” and the “serum HDL level” value (C57BL6 mice [2]; [6]) was “no significant difference”. For the same substance, the “serum LDL level” value (C57BL6 mice [2]; [6]) was “decreased”, the “serum VLDL level” value (C57BL6 mice [2]; [6]) was “no significant difference” and the “serum HDL-C level” value (C57BL6 mice [2]; [7]) was “decreased”. For the same substance, the “serum LDL-C level” value (C57BL6 mice [2]; [7]) was “decreased”, the “serum ALB level” value (C57BL6 mice [2]; week 16, HH2 (L47 30 mg/kg*2/d s.c., started after 8 weeks), p<0.001) was “slightly decreased” and the “serum ALB level” value (C57BL6 mice [2]; week 16, HL2 (L47 10 mg/kg*2/d s.c., started after 8 weeks), p<0.001) was “slightly decreased”. The “serum ALP level” value (C57BL6 mice [2]; week 16, among the groups) was “no significant difference”, the “serum ALB level” value (C57BL6 mice [2]; week 16, other groups (HL1, HH1)) was “no difference” and the “serum VLDL level” value (C57BL6 mice [2]; week 16, other groups except HL2 (HL1, HH1, HH2) vs model group) was “increased”. The “serum TC level” value (C57BL6 mice [2]; week 16, treatment groups (HL1, HH1, HL2, HH2) vs model group, p<0.001, p<0.001, p≤0.001, p<0.05) was “significantly decreased”, the “serum TG level” value (C57BL6 mice [2]; [4]) was “did not decrease; also recorded: no significant difference” and the “serum HDL level” value (C57BL6 mice [2]; [8]) was “decreased”. For the same substance, the “serum LDL level” value (C57BL6 mice [2]; [8]) was “decreased”, the “serum VLDL level” value (C57BL6 mice [2]; [8]) was “no significant difference” and the “serum ALT level” value (C57BL6 mice [2]; [9]) was “decreasing trends; also recorded: decreased significantly”. For the same substance, the “serum AST level” value (C57BL6 mice [2]; [9]) was “decreasing trends; also recorded: decreased significantly”, the “serum ALT level” value (C57BL6 mice [2]; [5]) was “did not decrease” and the “serum AST level” value (C57BL6 mice [2]; [5]) was “did not decrease”. The “serum ALT level” value (C57BL6 mice [2]; [10]) was “significantly decreased”, the “serum AST level” value (C57BL6 mice [2]; [10]) was “significantly decreased” and the “serum ALT level” value (C57BL6 mice [2]; [11]) was “did not decrease; also recorded: increasing trends”. The “serum AST level” value (C57BL6 mice [2]; [11]) was “did not decrease; also recorded: increasing trends”.
